The test system of data set [1] is cerebral blood flow in rats. The data set is described as follows: CO2 delivered into the lungs (systemic challenge); cerebral blood flow and arterial gases. In kind it is in vivo. The conditions noted are these: rat, delivery into lungs. The text has this: (§1) Referring now to FIG. 3, it can be seen that the increase in cbf is attributable to focal intranasal or intra-oral effect rather than to systemic absorption of CO2. […] At this very high concentration, sufficient CO2 must be absorbed focally, intracranially, into the cerebral circulation to appear in measurable amounts in the systemic circulation. It cannot be concluded, therefore, that the increase in cbf is caused by a purely local action of CO2 rather than being secondary to systemic absorption. […] The effect on cbf during intranasal or intra oral delivery of CO2 with concomitant air inhalation into the lungs is therefore a focal effect on intranasal and intracranial vasculature rather than secondary to systemic absorption.

Another data set has as its system awake humans. The data set is described as follows: Tolerability of intranasal CO2 delivery in awake humans. In kind it is in vivo, human. The text has this: While CO2 may be given to intubated, comatose individuals, the tolerability of intranasal gas delivery in awake humans has not previously been investigated. We have systematically tested the tolerability and effect of CO2 during intranasal delivery. CO2 elicits intense burning and stinging sensations which are intolerable above 16%. […] So individuals who are awake, such as stroke patients, these lower concentrations would be recommended. The current invention delivers CO2, or a combination of gases into the nasal or oral cavity but prevents its inhalation for the purposes of improving outcome from cerebral ischemia. […] In the embodiment with the anterior occlusion or “clip,” the CO2 could escape via a valve or exit tube or be suctioned out into a vacuumed container.

The subject of data set [2] is cerebral blood flow in rats. The data set is described as follows: Intranasal or intra-oral delivery of non-inhaled CO2 with air ventilation through a tracheostomy; cerebral blood flow and arterial gases. In kind it is in vivo. To be noted: rat.
Source text: When CO2 s inhaled through the nose or mouth into the pulmonary circulation, it passes into the systemic blood stream through the alveoli. Once it reaches the brain, it diffuses out into the csf to exert its effect. As more CO2 is inhaled into the lungs and absorbed into the systemic circulation, arterial CO2 concentration (PaCO2) rises, hydrogen ions are produced and arterial pH falls, creating an acidosis. Acidosis leads to narcosis, and ultimately coma and death. Less severe signs of CO2 inhalation in non-intubated patients include headaches, sweating and hyperventilation. […] Inhalation is prevented by ventilating the animal through a tracheostomy with air while delivering the experimental gas intranasally (or intra orally).
The increase is the same with 100% and with 50% gas concentration. […] Decline following discontinuation is somewhat slower than rise during delivery.
as §1

The next data set relates to intubated patients. To be noted: hypercarbia from reduced ventilation rate; cited from earlier work.
Setting [3] is: 50% CO2 intranasal, air into lungs.

As for `O=C=O` [CO2, carbon dioxide], in data set [1], the “arterial CO2 concentration when CO2 is delivered into the lungs” value is “rapidly increases”, the “arterial pH when CO2 is delivered into the lungs” value is on record as “falls” and the “cbf when CO2 is delivered into the lungs” value is “increases sharply”. The “CO2 concentration above which burning and stinging sensations are intolerable” value in the data set with awake humans is “above 16%”. For the same compound, the “tolerability of sensations at 16% CO2 or below” value in the data set on awake humans (16% or below, sensations abate over a few minutes) is recorded as “quite tolerable”. Further, in data set [2] (setting [3]), the “arterial pH, intranasal CO2 concentration 50%” value is recorded as “without any detectable increase in systemic PaCO2 or fall of pH”; the “cbf, intranasal CO2 concentration 50%” value is listed as “doubles”; the “systemic PaCO2, intranasal CO2 concentration 50%” value is on record as “without any detectable increase”. Besides, in data set [2] (100% CO2 intranasal), the “cbf, 100% CO2 delivered intranasally” value is reported as “also increases” and the “systemic CO2, 100% CO2 delivered intranasally, compared with lung delivery” value is recorded as “far less increase”. The “onset of cbf increase after start of delivery” value in data set [2] (intranasal or intra-oral, non-inhaled) is “within seconds”. Also, in data set [2] (non-inhaled, increase the same with 100% and 50% gas concentration), the “cbf during intranasal or intra-oral delivery of CO2” value was “more than doubled”. Further, in the data set on intubated patients, the “increase in cbf per mm Hg increase in arterial CO2 over 45 mm” value is listed as 4%.

These data come from US20130302445A1, “APPARATUS AND METHOD FOR TREATING CEREBRAL ISCHEMIA USING NON-INHALED CARBON DIOXIDE” (priority 2012, published 2013).
